Test results published in patent US12161115B2, “Herbicidal compounds” (SYNGENTA CROP PROTECTION AG, priority 2019, dated 2024).

How the values were obtained:
Format in all cases: in vivo
[1] = system: Avena fatua (AVEFA); experiment: Post-emergence herbicidal glasshouse test; conditions: 250 g/Ha, evaluated after 13 days
Protocol: (§1) Seeds of a variety of test species are sown in standard soil in pots (Lolium perenne (LOLPE), Setaria faberi (SETFA), Alopecurus myosuroides (ALOMY), Echinochloa crus-galli (ECHCG), Avena fatua (AVEFA)). After cultivation for one day (pre-emergence) or after 8 days cultivation (post-emergence) under controlled conditions in a glasshouse (at 24/16° C., day/night; 14 hours light; 65% humidity), the plants are sprayed with an aqueous spray solution derived from the formulation of the technical active ingredient in acetone/water (50:50) solution containing 0.5% Tween 20 (polyoxyethelyene sorbitan monolaurate, CAS RN 9005-64-5). Compounds are applied at 250 g/h. The test plants are then grown in a glasshouse under controlled conditions in a glasshouse (at 24/16° C., day/night; 14 hours light; 65% humidity) and watered twice daily. After 13 days for pre and post-emergence, the test is evaluated for the percentage damage caused to the plant. The biological activities are shown in the following table on a five point scale (5=80-100%; 4=60-79%; 3=40-59%; 2=20-39%; 1=0-19%). NT=not tested.

[2] = system: Setaria faberi (SETFA); experiment: Post-emergence herbicidal glasshouse test; conditions: 250 g/Ha, evaluated after 13 days
Protocol: as §1

[3] = system: Lolium perenne (LOLPE); experiment: Post-emergence herbicidal glasshouse test; conditions: 250 g/Ha, evaluated after 13 days
Protocol: as §1

[4] = system: Echinochloa crus-galli (ECHCG); experiment: Post-emergence herbicidal glasshouse test; conditions: 250 g/Ha, evaluated after 13 days
Protocol: as §1

[5] = system: Alopecurus myosuroides (ALOMY); experiment: Post-emergence herbicidal glasshouse test; conditions: 250 g/Ha, evaluated after 13 days
Protocol: as §1

[6] = system: wheat crop plants; experiment: Crop phytotoxicity comparison, post-emergence; conditions: post-emergence
Protocol: as §1
(§2) Using procedures outlines above, wheat and barley crop plants are treated, post-emergence with compounds A1, A3 or A8 of the present invention or comparator compound C1 (Compound A-38 from WO2014/096289) at the application rates indicated. The compounds were also applied in conjunction with the safener compound cloquintocet-mexyl (CQC) at 50 g/ha.

[7] = system: barley crop plants; experiment: Crop phytotoxicity comparison, post-emergence; conditions: post-emergence
Protocol: as §1, §2

[8] = system: Avena fatua (AVEFA); experiment: Pre-emergence herbicidal glasshouse test; conditions: 250 g/Ha, evaluated after 13 days
Protocol: as §1

[9] = system: Setaria faberi (SETFA); experiment: Pre-emergence herbicidal glasshouse test; conditions: 250 g/Ha, evaluated after 13 days
Protocol: as §1

[10] = system: Lolium perenne (LOLPE); experiment: Pre-emergence herbicidal glasshouse test; conditions: 250 g/Ha, evaluated after 13 days
Protocol: as §1

[11] = system: Echinochloa crus-galli (ECHCG); experiment: Pre-emergence herbicidal glasshouse test; conditions: 250 g/Ha, evaluated after 13 days
Protocol: as §1

[12] = system: Alopecurus myosuroides (ALOMY); experiment: Pre-emergence herbicidal glasshouse test; conditions: 250 g/Ha, evaluated after 13 days
Protocol: as §1

## CC#Cc1cc(C)c(C2C(=O)CC3(CCN(C(=O)C(C)=NOC)CC3)CC2=O)c(C)c1 [Compound A1, 9-(2,6-dimethyl-4-prop-1-ynyl-phenyl)-3-(2-methoxyiminopropanoyl)-3-azaspiro[5.5]undecane-8,10-dione]
[1]
  percentage damage caused to the plant, five point scale, AVEFA: 5 (5=80-100%)
[2]
  percentage damage caused to the plant, five point scale, SETFA: 5 (5=80-100%)
[3]
  percentage damage caused to the plant, five point scale, LOLPE: 5 (5=80-100%)
[4]
  percentage damage caused to the plant, five point scale, ECHCG: 5 (5=80-100%)
[5]
  percentage damage caused to the plant, five point scale, ALOMY: 5 (5=80-100%)
[6]; 30 g/ha
  % phytotoxicity observed, Wheat: 10%
[6]; 60 g/ha
  % phytotoxicity observed, Wheat: 20%
[6]; 60 g/ha + safener cloquintocet-mexyl (CQC) at 50 g/ha
  % phytotoxicity observed, Wheat: 0%
[6]; summary of Table B3
  damage to wheat crop compared to prior art compound C1: significantly less damaging
[7]; 30 g/ha
  % phytotoxicity observed, Barley: 20%
[7]; 60 g/ha
  % phytotoxicity observed, Barley: 40%
[7]; summary of Table B3
  damage to barley crop compared to prior art compound C1: significantly less damaging
[8]
  percentage damage caused to the plant, five point scale, AVEFA: 5 (5=80-100%)
[9]
  percentage damage caused to the plant, five point scale, SETFA: 5 (5=80-100%)
[10]
  percentage damage caused to the plant, five point scale, LOLPE: 5 (5=80-100%)
[11]
  percentage damage caused to the plant, five point scale, ECHCG: 5 (5=80-100%)
[12]
  percentage damage caused to the plant, five point scale, ALOMY: 5 (5=80-100%)
